{"source": "patent US20070148136A1", "about": "“Methods of using ammonia oxidizing bacteria” (priority 2003, published 2007)", "molecules": {"B1": {"name": "CP: ceruloplasmin, the main Cu containing serum protein (protein, UniProt P00450 20-1065, looked up)", "Ceruloplasmin": "KEKHYYIGIIETTWDYASDHGEKKLISVDTEHSNIYLQNGPDRIGRLYKKALYLQYTDETFRTTIEKPVWLGFLGPIIKAETGDKVYVHLKNLASRPYTFHSHGITYYKEHEGAIYPDNTTDFQRADDKVYPGEQYTYMLLATEEQSPGEGDGNCVTRIYHSHIDAPKDIASGLIGPLIICKKDSLDKEKEKHIDREFVVMFSVVDENFSWYLEDNIKTYCSEPEKVDKDNEDFQESNRMYSVNGYTFGSLPGLSMCAEDRVKWYLFGMGNEVDVHAAFFHGQALTNKNYRIDTINLFPATLFDAYMVAQNPGEWMLSCQNLNHLKAGLQAFFQVQECNKSSSKDNIRGKHVRHYYIAAEEIIWNYAPSGIDIFTKENLTAPGSDSAVFFEQGTTRIGGSYKKLVYREYTDASFTNRKERGPEEEHLGILGPVIWAEVGDTIRVTFHNKGAYPLSIEPIGVRFNKNNEGTYYSPNYNPQSRSVPPSASHVAPTETFTYEWTVPKEVGPTNADPVCLAKMYYSAVEPTKDIFTGLIGPMKICKKGSLHANGRQKDVDKEFYLFPTVFDENESLLLEDNIRMFTTAPDQVDKEDEDFQESNKMHSMNGFMYGNQPGLTMCKGDSVVWYLFSAGNEADVHGIYFSGNTYLWRGERRDTANLFPQTSLTLHMWPDTEGTFNVECLTTDHYTGGMKQKYTVNQCRRQSEDSTFYLGERTYYIAAVEVEWDYSPQREWEKELHHLQEQNVSNAFLDKGEFYIGSKYKKVVYRQYTDSTFRVPVERKAEEEHLGILGPQLHADVGDKVKIIFKNMATRPYSIHAHGVQTESSTVTPTLPGETLTYVWKIPERSGAGTEDSACIPWAYYSTVDQVKDLYSGLIGPLIVCRRPYLKVFNPRRKLEFALLFLVFDENESWYLDDNIKTYSDHPEKVNKDDEEFIESNKMHAINGRMFGNLQGLTMHVGDEVNWYLMGMGNEIDLHTVHFHGHSFQYKHRGVYSSDVFDIFPGTYQTLEMFPRTPGIWLLHCHVTDHIHAGMETTYTVLQNEDTKSG"}}, "key": {"ammonia monooxygenase": {"target": "T1, ammonia monooxygenase (Nitrosomonas europaea, UniProt Q04507+Q04508)", "T1 construct": "endogenous in cells; host or cells: autotrophic ammonia oxidizing bacteria (AAOB), mixed and unspecified, e.g. in waste water", "T1 sequence (Q04507 1-276)": "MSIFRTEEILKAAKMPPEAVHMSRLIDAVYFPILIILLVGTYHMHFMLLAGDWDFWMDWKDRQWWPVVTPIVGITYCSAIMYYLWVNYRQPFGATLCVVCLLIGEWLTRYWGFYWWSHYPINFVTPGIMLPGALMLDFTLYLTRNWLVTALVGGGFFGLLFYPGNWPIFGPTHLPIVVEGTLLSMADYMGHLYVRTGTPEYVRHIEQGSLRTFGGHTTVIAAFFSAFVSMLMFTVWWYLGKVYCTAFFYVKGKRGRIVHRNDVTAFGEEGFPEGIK", "T1 sequence (Q04508 26-420)": "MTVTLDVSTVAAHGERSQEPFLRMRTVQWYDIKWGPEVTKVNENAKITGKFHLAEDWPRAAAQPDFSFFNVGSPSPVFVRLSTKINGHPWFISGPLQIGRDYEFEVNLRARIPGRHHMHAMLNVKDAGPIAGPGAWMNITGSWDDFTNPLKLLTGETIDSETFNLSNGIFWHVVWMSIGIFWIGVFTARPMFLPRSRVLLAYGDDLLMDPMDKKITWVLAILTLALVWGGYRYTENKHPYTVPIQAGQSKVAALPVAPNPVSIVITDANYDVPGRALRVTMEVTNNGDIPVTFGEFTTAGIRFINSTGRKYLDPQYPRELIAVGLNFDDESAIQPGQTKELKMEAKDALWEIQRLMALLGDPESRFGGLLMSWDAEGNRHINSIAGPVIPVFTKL", "details": "cited from earlier work"}, "[1]": {"tested_on": "local brachial artery vasodilatation", "assay": "Local brachial artery vasodilatation after bolus infusion (Rassaf et al.)", "format": "in vivo, human", "details": "for relative effectiveness (intravenous NO : SNP : GSNO): ratio, intravenous NO = 1", "protocol": "SNP has also been compared to intravenous NO, where intravenous NO, SNP, and S—NO-glutathione (GSNO) were shown by Rassaf et al. to have relative “maximally effective doses” administered as bolus infusions in local brachial artery vasodilatation of 6 μM, 34 nM, and 5 nM respectively. (Rassaf et al., Evidence for in vivo transport of bioactive nitric oxide in human plasma, J. Clin. Invest. 109:1241-1248 (2002).) This puts the relative effectiveness of intravenous NO, SNP, and GSNO at 1:176:1200. There were significant differences in the temporal course of vasodilatation induced through the above treatments. […] Thus GSNO is roughly 7 times more “effective” at getting “NO active species” to peripheral GC than is SNP. Presumably then, a dose of about 0.1 μM/kg/hr of GSNO would have a vasodilatation effect equivalent to 0.75 μM/kg/hr SNP. The basal nitrate excretion is about 1 μM/kg/hr. If we assume that the vasodilatory effects of 0.75 μ/kg/hr SNP are on the “same order” as the indigenous NO already produced, then the 0.1 μkg/hr GSNO represents an increase in “effective NO” of […] over basal levels."}, "[2]": {"tested_on": "local brachial artery vasodilatation", "details": "bolus infusion, cited from earlier work"}, "Human Mast Cell Adhesion": {"tested_on": "Human Mast Cell Adhesion", "details": "cited from earlier work"}, "NOS [3]": {"tested_on": "NOS", "details": "horse, cited from earlier work"}, "NOS [4]": {"tested_on": "NOS", "details": "chronic inhibition of NOS; cited from earlier work"}, "NOS [5]": {"tested_on": "NOS", "details": "chronic inhibition of NOS; cited from earlier work", "remark": "listed apart in the source"}, "NOS [6]": {"tested_on": "NOS", "details": "in vivo; cited from earlier work"}, "NO synthesis": {"tested_on": "NO synthesis", "details": "in vivo; cited from earlier work"}, "[7]": {"details": "hyperbaric O2; cited from earlier work"}, "[8]": {"details": "type 2 diabetics; cited from earlier work"}, "guanylyl cyclase (GC)": {"target": "T2, guanylyl cyclase (GC) (Homo sapiens, UniProt Q02153)", "T2 construct": "Soluble Guanylyl Cyclase, in Intact Cerebellar Cells; host or cells: intact cerebellar cells (endogenous)", "T2 sequence (Q02153 1-619)": "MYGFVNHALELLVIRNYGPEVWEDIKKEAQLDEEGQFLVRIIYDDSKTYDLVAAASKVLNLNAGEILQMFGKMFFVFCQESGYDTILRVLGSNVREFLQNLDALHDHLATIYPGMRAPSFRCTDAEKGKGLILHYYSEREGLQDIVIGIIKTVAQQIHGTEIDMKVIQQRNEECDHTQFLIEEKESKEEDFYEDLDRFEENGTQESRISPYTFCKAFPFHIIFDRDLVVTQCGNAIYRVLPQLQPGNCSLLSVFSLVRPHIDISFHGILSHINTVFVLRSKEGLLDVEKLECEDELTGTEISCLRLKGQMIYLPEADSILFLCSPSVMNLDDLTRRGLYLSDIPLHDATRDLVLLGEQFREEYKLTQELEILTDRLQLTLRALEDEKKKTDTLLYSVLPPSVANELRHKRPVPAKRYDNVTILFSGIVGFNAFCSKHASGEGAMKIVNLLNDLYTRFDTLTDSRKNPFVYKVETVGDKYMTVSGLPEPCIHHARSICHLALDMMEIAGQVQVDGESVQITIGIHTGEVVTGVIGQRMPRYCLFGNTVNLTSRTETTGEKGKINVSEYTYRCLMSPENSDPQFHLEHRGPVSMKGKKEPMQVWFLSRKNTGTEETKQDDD", "T2 sequence (Q02108 1-690 partner)": "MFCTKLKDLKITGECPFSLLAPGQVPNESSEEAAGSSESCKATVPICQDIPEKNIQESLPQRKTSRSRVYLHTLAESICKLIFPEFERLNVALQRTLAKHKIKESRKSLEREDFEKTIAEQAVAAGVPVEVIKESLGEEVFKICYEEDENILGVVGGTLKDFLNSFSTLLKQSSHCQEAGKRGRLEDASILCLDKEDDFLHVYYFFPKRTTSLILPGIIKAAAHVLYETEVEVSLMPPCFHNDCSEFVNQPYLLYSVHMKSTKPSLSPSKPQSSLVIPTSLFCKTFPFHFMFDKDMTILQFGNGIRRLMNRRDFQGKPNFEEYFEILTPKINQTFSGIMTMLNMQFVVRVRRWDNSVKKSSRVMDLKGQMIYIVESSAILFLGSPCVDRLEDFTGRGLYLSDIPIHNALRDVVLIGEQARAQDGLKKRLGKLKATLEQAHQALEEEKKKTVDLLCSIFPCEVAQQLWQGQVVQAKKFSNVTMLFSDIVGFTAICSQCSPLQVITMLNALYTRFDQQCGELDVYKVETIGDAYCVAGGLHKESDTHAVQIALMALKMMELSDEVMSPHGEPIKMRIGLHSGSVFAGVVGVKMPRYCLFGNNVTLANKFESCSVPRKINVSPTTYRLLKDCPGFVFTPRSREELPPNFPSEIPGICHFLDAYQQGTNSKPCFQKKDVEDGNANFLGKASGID", "details": "read-out: apparent EC50 for guanylyl cyclase activation, cited from earlier work"}, "[9]": {"details": "inhaled NO at 80 ppm in >90% O2 (16 μM/min=14 μM/kg/hr); cited from earlier work"}, "[10]": {"details": "compared with estrogen; cited from earlier work"}, "AAOB": {"tested_on": "AAOB", "details": "cited from earlier work"}, "[11]": {"details": "physiologic concentrations of CP; cited from earlier work"}, "[12]": {"tested_on": "murine macrophage cells (RAW264)", "details": "CP 2 μM/L in Krebs-Ringer-phosphate, absence of hemoglobin; cited from earlier work"}}, "note": "Entries after “also recorded” stand apart in the source; their conditions may differ. Where two headings read alike, the source gives them in different places."}
{"molecule": "C=CCNC(N)=S", "note": "[Allylthiourea]", "values": [{"measurement": "inhibition of ammonia monooxygenase", "setting": "ammonia monooxygenase", "result": "very effective at inhibiting ammonia monooxygenase"}]}
{"molecule": "N[C@@H](CCC(=O)N[C@@H](CSN=O)C(=O)NCC(=O)O)C(=O)O", "note": "[GSNO, S-nitrosoglutathione]", "values": [{"measurement": "effectiveness at getting NO active species to peripheral GC relative to SNP", "setting": "[1]; GSNO versus SNP", "result": "roughly 7 times"}, {"measurement": "relative effectiveness (intravenous NO : SNP : GSNO)", "setting": "[1]", "result": 1200}, {"measurement": "maximally effective dose, local brachial artery vasodilatation", "setting": "[2]", "result": 0.005, "unit": "µM"}, {"measurement": "mast cell adhesion", "setting": "Human Mast Cell Adhesion", "result": "strongly down regulated"}]}
{"molecule": "COC(=O)[C@@H](N)CCCNC(=N)N[N+](=O)[O-]", "note": "[L-NAME, N(G)-nitro-L-arginine methyl ester]", "values": [{"measurement": "VCO2max", "setting": "NOS [3]; L-NAME group (control 62.5)", "result": 61.0, "unit": "L/min"}, {"measurement": "reduction of cardiac output", "setting": "NOS [3]; L-NAME group", "result": 12, "unit": "%"}, {"measurement": "fibrosis of heart and kidneys", "setting": "NOS [4]", "result": "generalized fibrosis of the heart and kidneys"}, {"measurement": "total (pancreatic islet) NO production", "setting": "NOS [5]", "result": "can increase NO levels at particular sites; also recorded: increases total pancreatic islet NO production"}]}
{"molecule": "NC(=NCCC[C@H](N)C(=O)O)N[N+](=O)[O-]", "note": "[L-NNA, N-nitro-L arginine]", "values": [{"measurement": "wake-sleep differences in cerebral blood flow", "setting": "NOS [6]", "result": "abolishes wake-sleep differences in cerebral blood flow"}, {"measurement": "reduction in basal temperature following hypoxia", "setting": "NO synthesis", "result": "greatly diminished"}]}
{"molecule": "N=C(N)NCCC[C@H](N)C(=O)O", "note": "[L-arginine]", "values": [{"measurement": "latency to seizure", "setting": "[7]", "result": "increase the latency to seizure"}, {"measurement": "forearm blood flow", "setting": "[8]", "result": "increases forearm blood flow"}, {"measurement": "insulin sensitivity", "setting": "[8]", "result": "increases insulin sensitivity"}]}
{"molecule": "[N]=O", "note": "[NO, nitric oxide]", "values": [{"measurement": "relative effectiveness (intravenous NO : SNP : GSNO)", "setting": "[1]", "result": 1}, {"measurement": "EC50", "setting": "guanylyl cyclase (GC); rapid (˜100 ms) activation", "result": "~45", "unit": "nM"}, {"measurement": "EC50", "setting": "guanylyl cyclase (GC); slow (˜1 to 10 sec) activation", "result": "~20", "unit": "nM"}, {"measurement": "change in mean arterial pressure", "setting": "[9]", "result": "no change in mean arterial pressure"}, {"measurement": "maximally effective dose, local brachial artery vasodilatation", "setting": "[2]; intravenous", "result": 6, "unit": "µM"}]}
{"molecule": "O=[N+]([O-])OCC(CO[N+](=O)[O-])O[N+](=O)[O-]", "note": "[nitroglycerin]", "values": [{"measurement": "prevention of bone loss", "setting": "[10]", "result": "as effective as estrogen to prevent bone loss"}]}
{"molecule": "S-nitroso-N-acetylpenicilamine [SNAP]", "values": [{"measurement": "latency to seizure", "setting": "[7]", "result": "significantly shortens"}]}
{"molecule": "linear alkylbenzene sulfonates [LAS]", "values": [{"measurement": "toxicity to AAOB", "setting": "AAOB", "result": "toxic to AAOB at ppm levels"}, {"measurement": "toxicity to AAOB", "setting": "AAOB; listed as linear alkyl benzene sulfonate detergents", "result": "killed by ppm levels"}]}
{"molecule": "B1", "values": [{"measurement": "increase in formation of GSNO from NO and GSH", "setting": "[11]", "result": "approximately 100 times"}, {"measurement": "conversion of authentic NO to RSNO (recovered NAC—NO)", "setting": "[12]", "result": "≤ 33", "unit": "%"}]}
